Here are results for four compounds from ChEMBL document CHEMBL3399934, “Cannabidiol (CBD) and its analogs: a review of their effects on inflammation” (Bioorg Med Chem, 2015).

A word on the Ki: it is the dissociation constant of the complex between target and ligand, obtained from inhibition or displacement. As a reminder, the IC50 is the concentration that gives 50% inhibition. The EC50 is the concentration needed to bring the measured effect to its halfway point.

Molecules are shown by their SMILES.

In data set [1] the target is Cannabinoid receptor 1 (Rattus norvegicus, UniProt P20272). Put plainly: Binding affinity to rat CB1 receptor.
For data set [2], the target named is Cannabinoid receptor 1 (Mus musculus, UniProt P47746). As to the kind of experiment: Partial agonist activity at mouse CB1 receptor by vas deferens assay.
In a further data set the test system is Neutrophil. As to the kind of experiment: Inhibition of human neutrophil migration incubated for 30 mins prior to fMLP challenge by boyden chamber assay. Type of data set: functional, cell-based.
In data set [3] the test system is Fibroblast. As to the kind of experiment: Reduction of lecithin content in Niemann-Pick patient fibroblast at 30 uM. It counts as functional, Homo sapiens. Details: scale not given: the % may be the effect or the level left.
Data set [4] is described as follows: Reduction of lecithin content in human fibroblast at 30 uM. It counts as ADME, cell-based. Details: scale not given: the % may be the effect or the level left.
Data set [5] can be described thus: Antiinflammatory activity in human glial cells assessed as reduction of LPS-induced S100B expression at 1 uM. It counts as functional. Details: scale not given: the % may be the effect or the level left.
Data set [6] can be described thus: Reduction of sphingomyelin content in human fibroblast at 30 uM. Type of data set: ADME, cell-based. Further details: scale not given: the % may be the effect or the level left.
Data set [7] deals with Mus musculus. As to the kind of experiment: Reduction of iNOS protein expression in C57BL/6J mouse hippocampus inoculated with human amyloid beta (1 to 42) at 10 ug/kg, ip after 10 days by immunofluorescence analysis. Type of data set: functional. Details: scale not given: the % may be the effect or the level left.
Data set [8] deals with Mus musculus. As to the kind of experiment: Reduction of IL-1beta release in C57BL/6J mouse hippocampus inoculated with human amyloid beta (1 to 42) at 10 ug/kg, ip after 10 days by ELISA. Type of data set: functional. Further details: scale not given: the % may be the effect or the level left. For orientation: In an ELISA, binding on a coated surface is turned into a signal by an enzyme label.

The test system of data set [9] is Mus musculus. Put plainly: Reduction of IL-1beta protein expression in C57BL/6J mouse hippocampus inoculated with human amyloid beta (1 to 42) at 10 ug/kg, ip after 10 days by immunofluorescence analysis. It counts as functional. Details: scale not given: the % may be the effect or the level left.
Data set [10] in a line: Induction of rat TRPV3 expressed in HEK293 cells assessed as increase of Ca2+ level. Type of data set: cell-based.
In data set [11] the test system is Mus musculus. Put plainly: Antiinflammatory activity in Swiss OF1 mouse assessed as reduction of LPS-induced TNF-alpha expression at 10 mg/kg, ip by immunoblotting analysis. Type of data set: functional. Details: scale not given: the % may be the effect or the level left. The conditions noted are these: route intraperitoneal.
A short description of data set [12]: Antiinflammatory activity in human glial cells assessed as reduction of LPS-induced nitrate expression at 1 uM. It counts as functional. Details: scale not given: the % may be the effect or the level left.
The next data set relates to HEK293. As to the kind of experiment: Induction of rat TRPV3 expressed in HEK293 cells assessed as increase of Ca2+ level relative to ionomycin. Type of data set: cell-based.
The test system of data set [13] is Mus musculus. Put plainly: Reduction of NO release in C57BL/6J mouse hippocampus inoculated with human amyloid beta (1 to 42) at 10 ug/kg, ip after 7 days. It counts as functional. Details: scale not given: the % may be the effect or the level left.
A short description of data set [14]: Antiinflammatory activity in human glial cells assessed as reduction of LPS-induced iNOS expression at 1 uM. It counts as functional. Details: scale not given: the % may be the effect or the level left.
The test system of data set [15] is Fibroblast. Put plainly: Reduction of sphingomyelin content in Niemann-Pick patient fibroblast at 30 uM. Details: scale not given: the % may be the effect or the level left. It counts as functional, Homo sapiens.

Sequence of Cannabinoid receptor 1 (Rattus norvegicus, UniProt P20272) (P20272 whole entry): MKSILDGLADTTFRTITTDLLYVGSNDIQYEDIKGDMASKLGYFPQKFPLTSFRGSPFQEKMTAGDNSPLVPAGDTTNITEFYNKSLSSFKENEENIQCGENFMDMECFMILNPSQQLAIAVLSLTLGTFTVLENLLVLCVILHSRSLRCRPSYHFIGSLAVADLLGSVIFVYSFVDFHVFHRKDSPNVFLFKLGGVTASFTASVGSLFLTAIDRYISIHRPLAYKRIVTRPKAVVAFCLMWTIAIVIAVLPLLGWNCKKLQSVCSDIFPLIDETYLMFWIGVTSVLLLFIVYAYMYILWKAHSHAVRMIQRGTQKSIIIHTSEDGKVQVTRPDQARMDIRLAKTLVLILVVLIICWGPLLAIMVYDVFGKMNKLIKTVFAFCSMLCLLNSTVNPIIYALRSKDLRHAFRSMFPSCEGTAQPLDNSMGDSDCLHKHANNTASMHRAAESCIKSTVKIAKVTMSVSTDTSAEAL
Sequence of Cannabinoid receptor 1 (Mus musculus, UniProt P47746) (P47746 whole entry): as the sequence (P20272 whole entry) above, with E95D counted along it

Turning to `CCCCCCC(C)(C)c1cc(OC)c([C@H]2C=C(CO)[C@H]3C[C@@H]2C3(C)C)c(OC)c1`, the Ki on Cannabinoid receptor 1 [1] was > 10 µM.

Turning to `C=C(C)[C@@H]1CCC(C)=C[C@H]1c1ccc(CCCCC)cc1O`, the IC50 on Cannabinoid receptor 1 [2] was 0.0309 µM.

In the data set with Neutrophil, `C=C(C)[C@@H]1CCC(C)=C[C@H]1c1c(C)cc(O)cc1O` gave an IC50 of 0.033 µM.

In the case of `C=C(C)[C@@H]1CCC(C)=C[C@H]1c1c(O)cc(CCCCC)cc1O` [CANNABIDIOL], the Activity in the data set with Fibroblast [3] is reported as 21%; in data set [4], 21%; in data set [5], >50%; in data set [6], 17%; in the data set with Mus musculus [7], 50%; in the data set with Mus musculus [8] it was 50%. Moreover, the Activity in the data set on Mus musculus [9] was 50%; in the data set with Mus musculus [11], 50%; in data set [12], >50%; in the data set with HEK293 it was 50%; with Mus musculus [13], 50%; in data set [14], >50%. Further, the Activity in the data set with Fibroblast [15] came out at 77%. The compound further displayed a half-maximal inhibitory concentration (IC50) in the data set on Neutrophil of 0.00045 µM. For the same compound, in [10], the EC50 is 3.7 µM.
